What all share (type): ADME, organism-based
Data set [1] deals with Plasma. Put plainly: Drug level in Sprague-Dawley rat plasma treated with saikosaponin a at 50 mg/kg, po administered through gavage by LC-DAD-IT-TOF-MS analysis. Details: dose 50 mg/kg, route oral. The following applies: in vivo.
The next data set is filed under the species Rattus norvegicus. The data set is described as follows: Drug level in Sprague-Dawley rat assessed as retention time treated with saikosaponin a by LC-DAD-IT-TOF-MS analysis.
Data set [2] is described as follows: Drug recovery in po dosed rat excreted feces measured over 0 to 24 hrs after drug administration by HPLC analysis relative to starting drug dose. As to conditions: faeces, read-out: Drug recovery.
Data set [3] can be described thus: Drug excretion in Sprague-Dawley rat urine treated with saikosaponin a at 50 mg/kg, po administered through gavage by LC-DAD-IT-TOF-MS analysis. Also noted: dose 50 mg/kg, route oral. The following applies: in vivo.
Data set [4] is described as follows: Drug excretion in Sprague-Dawley rat bile treated with saikosaponin a at 50 mg/kg, po administered through gavage by LC-DAD-IT-TOF-MS analysis. Also noted: dose 50 mg/kg, route oral. As to conditions: in vivo.
The nature of data set [5]: Drug excretion in Sprague-Dawley rat bile treated with saikosaponin a at 15 mg/kg, iv by LC-DAD-IT-TOF-MS analysis. Details: dose 15 mg/kg, route intravenous. As to conditions: in vivo.
Data set [6] can be described thus: Drug excretion in Sprague-Dawley rat feces treated with saikosaponin a at 50 mg/kg, po administered through gavage by LC-DAD-IT-TOF-MS analysis. Details: dose 50 mg/kg, route oral. The following applies: in vivo.
Data set [7] can be described thus: Drug excretion in Sprague-Dawley rat feces treated with saikosaponin a at 15 mg/kg, iv by LC-DAD-IT-TOF-MS analysis. Details: dose 15 mg/kg, route intravenous. As to conditions: in vivo.
Data set [8] deals with Plasma. The data set is described as follows: Drug level in Sprague-Dawley rat plasma treated with saikosaponin a at 15 mg/kg, iv by LC-DAD-IT-TOF-MS analysis. The following applies: in vivo. Details: dose 15 mg/kg, route intravenous.
The nature of data set [9]: Drug excretion in Sprague-Dawley rat urine treated with saikosaponin a at 15 mg/kg, iv by LC-DAD-IT-TOF-MS analysis. Also noted: dose 15 mg/kg, route intravenous. The following applies: in vivo.

The results in this text go back to ChEMBL document CHEMBL3525998, “Metabolism of saikosaponin a in rats: diverse oxidations on the aglycone moiety in liver and intestine in addition to hydrolysis of glycosidic bonds” (Drug Metab Dispos, 2013).

Regarding `C[C@H]1O[C@@H](O[C@H]2CC[C@@]3(C)[C@@H](CC[C@]4(C)[C@@H]3C=C[C@]35OC[C@@]6(CCC(C)(C)C[C@H]63)[C@@H](O)C[C@]54C)[C@]2(C)CO)[C@H](O)[C@@H](O)[C@H]1O`, the Drug metabolism result in the data set on Plasma [1] and with Plasma [8] was “metabolite_detected” in each case. Moreover, the Retention_time in the data set listed under Rattus norvegicus stood at 45.5 min. Moreover, the dose excreted in data set [2] was above 50%. Moreover, the Drug excretion entry in [3], in data set [4], in data set [5], in data set [6], in data set [7] and in data set [9] was “metabolite_detected” in each case.
In the case of `CC1(C)CC[C@]23CO[C@@]4(C=C[C@@H]5[C@@]6(C)CCC(=O)[C@@](C)(CO)[C@@H]6CC[C@@]5(C)[C@]4(C)C[C@@H]2O)[C@@H]3C1`, the Retention_time in the data set filed under Rattus norvegicus is on record as 52.3 min. For the same compound, the Drug excretion entry in data set [3] and in [6] was “metabolite_detected” throughout.
As for `CC1(C)CC[C@]23CO[C@@]4(C=C[C@@H]5[C@@]6(C)CC[C@H](O)[C@@](C)(CO)[C@@H]6CC[C@@]5(C)[C@]4(C(=O)O)C[C@@H]2O)[C@@H]3C1`, the Retention_time in the data set listed under Rattus norvegicus is 18.4 min. Moreover, the Drug excretion result in [3], in [6] and in [7] was “metabolite_detected” throughout.
For the compound `C[C@H]1O[C@@H](O[C@H]2CC[C@@]3(C)[C@@H](CC[C@]4(C)[C@@H]3CC=C3[C@@H]5CC(C)(C)CC[C@]5(CO)[C@@H](O)C[C@]34C)[C@]2(C)CO)[C@H](O)[C@@H](O[C@@H]2O[C@H](CO)[C@@H](O)[C@H](O)[C@H]2O)[C@H]1O`, the Retention_time in the data set filed under Rattus norvegicus is 22.9 min. Moreover, in data set [5], the Drug excretion entry is listed as “metabolite_detected”.
For `CC1(C)CC[C@]23CO[C@@]4(C=C[C@@H]5[C@@]6(C)C=C[C@H](O)[C@@](C)(CO)[C@@H]6CC[C@@]5(C)[C@]4(C)C[C@@H]2O)[C@@H]3C1`, the Retention_time in the data set filed under Rattus norvegicus came to 53.7 min. For the same compound, the Drug excretion result in data set [3] and in [6] was “metabolite_detected” each time.
In the case of `CC1(C)CC[C@]23CO[C@@]4(C=C[C@@H]5[C@@]6(C)CC[C@H](O)[C@@](C)(CO)[C@@H]6CC[C@@]5(C)[C@]4(C)C[C@@H]2O)[C@@H]3C1`, the Retention_time in the data set filed under Rattus norvegicus stood at 48.3 min. Besides, in data set [2], the dose excreted is above 50%. Also, the Drug excretion entry in data set [3], in data set [6] and in data set [7] was “metabolite_detected” each time.
